Measurements from US5859007A, “CCK or gastrin modulating benzo [b][1,4] diazepines derivatives” (Glaxo Wellcome Inc., priority 1994, dated 1999).
Read-outs that look alike come from different tables or passages of the source. No end group written: not given here.

Columns and labels:
[1] = test system: isolated guinea pig gallbladder; assay: Functional activity in isolated guinea pig gallbladder preparation; format: cell-based; conditions: for activation at 30 µM / activation at 1 µM: Cavia porcellus; for activation at 1 µM: read-out: %Contraction (1 × 10^-6 M)
rat gastric emptying = assay: Rat gastric emptying assay; format: in vivo; conditions: vehicle 66
Description: 7. RAT GASTRIC EMPTYING PROTOCOL
Methyl Cellulose (MC) Test Meal
1. Disperse MC in water at 80° C. at a final concentration of 1.5% under continuous stirring. Cool to room temperature.
2. Add Phenol Red (50 mg/100) to solution.
3. Keep solution stirring during entire experiment.
1. Food deprive animals for 18 hours.
2. Inject test drug/prop. glycol or prop. glycol alone intraperitoneally.
3. After 5 minutes, gavage 1.5 mL of Pheno Red/MC solution
1. After 20 minutes, decapitate animal
2. Clamp stomach at the pylorus and cardia ends, and rinse in 0.9% NaCl.
3. Place stomach in 100 mL of 0.1N NaOH, cut into small pieces, and homogenize for 30 seconds.
4. Let settle at room temperature for 60 minutes.
5. In centrifuge tube, add 5 mL of supernatant and 0.5 mL of trichloroacetic acid (29% w/v), and centrifuge at 2,800 rpm for 20 minutes.
6. Decant supernatant, and add 4 mL of 0.5N NaOH and read absorbance at a wavelength of 560 nm.
Calculations [formula] The standard stomach is determined from the phenol red recovered in stomachs of rats decapitated immediately after intragastric infusion of MC/phenol red.

[2] = delivered at 30 μM, read-out: Isolated guinea pig gallbladder: % contraction
[3] = intraperitoneally at 0.1 μmoles/kg
[4] = 1 × 10^-6 M test compound, expressed as % CCK-induced maximal response
[5] = 3 × 10^-5 M test compound, expressed as % CCK-induced maximal response, read-out: % Contraction (3 × 10^-5 M)

Molecule	activation at 1 µM [1, 4] [%]	activation at 30 µM [1, 5] [%]	also measured
COc1ccc(N(C(=O)CN2C(=O)C(Cc3n[nH]c4ccccc34)C(=O)N(c3ccccc3)c3ccccc32)C(C)C)cc1 (stereo not drawn) [Example 31, 2-[3-(1H-Indazol-3-ylmethyl)-2,4-dioxo-5-phenyl-2,3,4,5-tetrahydro-benzo[b][1,4]diazepin-1-yl]-N-isopropyl-N-(4-methoxy-phenyl) acetamide]			activation at 30 µM [1, 2]: 87%; rat gastric emptying: % emptying (rat gastric emptying; [3]): 6%
COc1ccc(N(C(=O)CN2C(=O)C(Cc3n[nH]c4ccccc34)C(=O)N(c3ccccn3)c3ccccc32)C(C)C)cc1 (stereo not drawn) [Example 49, 2-[3-(1H-Indazol-3-ylmethyl)-2,4-dioxo-5-pyrid-2-yl-2,3,4,5-tetrahydro-benzo[b][1,4]diazepin-1-yl]-N-isopropyl-N-(4-methoxy-phenyl) acetamide]	75	91	activation at 30 µM [1, 2]: 100%; rat gastric emptying: % emptying (rat gastric emptying; [3]): 2.5%
COc1ccc(N(C(=O)CN2C(=O)C(Cc3n[nH]c4ccccc34)C(=O)N(c3cccnc3)c3cc(F)ccc32)C(C)C)cc1 (stereo not drawn) [Example 66, 2-[7-Fluoro-3-(1H-indazol-3-ylmethyl)-2,4-dioxo-5-pyridin-3-yl-2,3,4,5-tetrahydro-benzo[b][1,4]diazepin-1-yl]-N-isopropyl-N-(4-methoxy-phenyl)-acetamide]	97	116	
COc1ccc(N(C(=O)CN2C(=O)C(Cc3n[nH]c4ccccc34)C(=O)N(c3ccccc3)c3cc(F)c(F)cc32)C(C)C)cc1 (stereo not drawn) [Example 67, 2-[7,8-Difluoro-3-(1H-indazol-3-ylmethyl)-2,4-dioxo-5-phenyl-2,3,4,5-tetrahydro-benzo[b][1,4]diazepin-1-yl]-N-isopropyl-N-(4-methoxy-phenyl)-acetamide]	78	102	
CC(C)N(C(=O)CN1C(=O)C(Cc2n[nH]c3ccccc23)C(=O)N(c2ccccc2)c2ccccc21)c1ccccc1 (stereo not drawn) [Example 68, 2-[3-(1H-indazol-3-ylmethyl)-2,4-dioxo-5-phenyl-2,3,4,5-tetrahydro-benzo[b][1,4]diazepin-1-yl]-N-isopropyl-N-phenyl-acetamide]	93	99	
CC(C)N(C(=O)CN1C(=O)C(Cc2n[nH]c3cc(F)ccc23)C(=O)N(c2ccccc2)c2ccccc21)c1ccccc1 (stereo not drawn) [Example 69, 2-[3-(6-Fluoro-1H-indazol-3-ylmethyl)-2,4-dioxo-5-phenyl-2,3,4,5-tetrahydro-benzo[b][1,4]diazepin-1-yl]-N-isopropyl-N-phenyl-acetamide]	98	92	
CC(C)N(C(=O)CN1C(=O)C(Cc2n[nH]c3cc(F)ccc23)C(=O)N(c2ccccc2)c2ccccc21)c1ccc(OC(F)(F)F)cc1 (stereo not drawn) [Example 70, 2-[3-(6-Fluoro-1H-indazol-3-ylmethyl)-2,4-dioxo-5-phenyl-2,3,4,5-tetrahydro-benzo[b][1,4]diazepin-1-yl]-N-isopropyl-N-(4-trifluoromethoxy-phenyl)-acetamide]	66	73	
COc1ccc(N(C(=O)CN2C(=O)C(Cc3n[nH]c4ccccc34)C(=O)N(c3cccnc3)c3ccccc32)C(C)C)cc1 (stereo not drawn) [Example 71, 2-[3-(1H-indazol-3-ylmethyl)-2,4-dioxo-5-pyridin-3-yl-2,3,4,5-tetrahydrobenzo[b][1,4]diazepin-1-yl]-N-isopropyl-N-(4-methoxy-phenyl) acetamide]	106	92	
COc1ccc(N(C(=O)CN2C(=O)C(C)(Cc3n[nH]c4ccccc34)C(=O)N(c3cccnc3)c3ccccc32)C(C)C)cc1 (stereo not drawn) [Example 74, 2-[3-(1H-Indazol-3-ylmethyl)-3-methyl-2,4-dioxo-5-pyridin-3-yl-2,3,4,5-tetrahydro-benzo[b][1,4]diazepin-1-yl]-N-isopropyl-N-(4-methoxy-phenyl)-acetamide]	86	88	
COc1ccc(N(C(=O)CN2C(=O)C(C)(Cc3n[nH]c4ccccc34)C(=O)N(c3cccnc3)c3ccccc32)C(C)C)cc1 (stereo not drawn) [Example 76, 2-[3-(1H-indazol-3-ylmethyl)-3-methyl-2,4-dioxo-5-pyridin-3-yl-2,3,4,5-tetrahydro-benzo[b][1,4]diazepin-1-yl]-N-isopropyl-N-(4-methoxy-phenyl)-acetamide]			%Contraction (1 × 10^-6 M) [1, 4]: 93%; % Contraction (3 × 10^-5 M) ([1]; 3 × 10^-5 M test compound, expressed as % CCK-induced maximal response): 95%
CC(C)N(C(=O)CN1C(=O)C(Cc2n[nH]c3ccccc23)C(=O)N(c2ccccc2)c2ccccc21)c1ccc2c(c1)OCO2 (stereo not drawn) [Example 77, 2-[3-(1H-Indazol-3-ylmethyl)-2,4-dioxo-5-phenyl-2,3,4,5-tetrahydrobenzo[b][1,4]diazepin-1-yl]-N-isopropyl-N-(3,4-methylenedioxy-phenyl) acetamide]	78	120	
COc1ccccc1N(C(=O)CN1C(=O)C(Cc2n[nH]c3ccccc23)C(=O)N(c2ccccc2)c2ccccc21)C(C)C (stereo not drawn) [Example 78, 2-[3-(1H-Indazol-3-ylmethyl)-2,4-dioxo-5-phenyl-2,3,4,5-tetrahydrobenzo[b][1,4]diazepin-1-yl]-N-isopropyl-N-(2-methoxy-phenyl) acetamide]	43		
COc1cccc(N(C(=O)CN2C(=O)C(Cc3n[nH]c4ccccc34)C(=O)N(c3ccccc3)c3ccccc32)C(C)C)c1 (stereo not drawn) [Example 79, 2-[3-(1H-Indazol-3-ylmethyl)-2,4-dioxo-5-phenyl-2,3,4,5-tetrahydrobenzo[b][1,4]diazepin-1-yl]-N-isopropyl-N-(3-methoxy-phenyl) acetamide]	92	93	
COc1ccc(N(C(=O)CN2C(=O)C(Cc3n[nH]c4ccccc34)C(=O)N(c3ccncc3)c3ccccc32)C(C)C)cc1 (stereo not drawn) [Example 80, 2-[3-(1H-Indazol-3-ylmethyl)-2,4-dioxo-5-pyridin-4-yl-2,3,4,5-tetrahydro-benzo[b][1,4]diazepin-1-yl]-N-isopropyl-N-(4-methoxy-phenyl)-acetamide]	81	73	
COc1ccc(N(C(=O)CN2C(=O)C(Cc3n[nH]c4ccccc34)C(=O)N(c3cccc(F)c3)c3ccccc32)C(C)C)cc1 (stereo not drawn) [Example 81, 2-[5-(3-Fluoro-phenyl)-3-(1H-indazol-3-ylmethyl)-2,4-dioxo-2,3,4,5-tetrahydro-benzo[b][1,4]diazepin-1-yl]-N-isopropyl-N-(4-methoxy-phenyl)-acetamide]	97	96	
COc1ccc(N(C(=O)CN2C(=O)C(COCc3ccccc3)C(=O)N(c3ccccc3)c3ccccc32)C(C)C)cc1 (stereo not drawn) [Example 82, 2-[3-(Benzyloxymethyl)-2,4-dioxo-5-phenyl-2,3,4,5-tetrahydro-benzo[b][1,4]diazepin-1-yl]-N-isopropyl-N-(4-methoxy-phenyl)-acetamide]	69	89	
CC(C)N(C(=O)CN1C(=O)C(Cc2n[nH]c3ccccc23)C(=O)N(c2cccnc2)c2ccccc21)c1ccccc1 (stereo not drawn) [Example 83, 2-[3-(1H-Indazol-3-ylmethyl)-2,4-dioxo-5-pyridin-3-yl-2,3,4,5-tetrahydrobenzo[b][1,4]diazepin-1-yl]-N-isopropyl-N-phenyl acetamide]	85	97	
COc1ccc(N(C(=O)CN2C(=O)C(C)(CC(=O)Nc3ccccc3)C(=O)N(c3cccnc3)c3ccccc32)C(C)C)cc1 (stereo not drawn) [Example 84, N-Isopropyl-N-[4-methoxyphenyl]-2-[3-methyl-2,4-dioxo-3-phenylcarbamoylmethyl-5-pyridin-3-yl-2,3,4,5-tetrahydrobenzo[b][1,4]diazepin-1-yl) acetamide]	96	96	
CCK8: the Cterminal octapeptide of CCK (DYMGWMDF; ends and bridges not checked; UniProt P06307 96-103, looked up) [reference compound]			Isolated guinea pig gallbladder: % contraction ([1]; delivered at 1 μM): 100%; rat gastric emptying: % emptying (rat gastric emptying; CCK-8 intraperitoneally at 30 nmoles/kg): 0%
